Reference: patent publication US20110250135A1, “Piperazine Derivatives for Binding and Imaging Amyloid Plaques and Their Use” (Bayer Schering Pharma Aktiengesellschaft, priority 2008, published 2011)

Key:
Aβ plaques = target: T1, Aβ plaques (Homo sapiens, UniProt P05067); experiment: Autoradiographical analysis of binding to cryosections from cortex of AD patients and controls; conditions: F-18 labeled compound; Alzheimer's disease patients (AD) vs controls without Aβ plaques
T1 construct: controls without Aβ plaques; from tissue; host or cells: frontal lobe / cortex sections (frozen and paraffin) from AD patients, FTD patients and age-matched controls
Source text: Fresh frozen as well as paraffin embedded sections of the frontal lobe from Alzheimer's dementia patients, frontotemporal dementia patients and age matched controls were used for the study. Frozen sections, sliced at 18 μm thickness on a cryostate (Leica, Germany) and paraffin sections, sliced on a sliding microtom (Leica) at a thickness of 6 μm, were mounted onto glass slides (Superfrost Plus, Fa.Menzel, Braunschweig Germany). Frozen sections were allowed to adhere to the slides for several nights at −20° C. The paraffin sections were deparaffinized using routine histological methods. For binding studies sections were incubated with the F-18 labeled test compound at 10 Bq/μl diluted in 25 mM Hepes buffer, pH 7.4, 0.1% (BSA) (200-300 μl/slide) for 1.5 hour at room temperature in a humidified chamber. For blocking experiments a 1000-fold access of the unlabeled test substance was added to the incubation mixture. After hybridization, sections were washed four times with Hepes buffer, 0.1% BSA (or alternatively two times with 40% ethanol) and finally dipped two times into dest. water for 10 sec. The air-dried sections were exposed to imaging plates and signals were detected by a phosphoimager device (Fuji BAS5000).

[1] = Biodistribution: organ distribution of F-18 signal in mice; assay type: in vivo, male NMRI mice; conditions: for Organ distribution of F-18 signal, intestine: intestine (with content); for Organ distribution of F-18 signal, stomach: stomach (without content)
Description: Biodistribution and excretion studies were performed in male NMRI mice (body weight app. 30g; 3 animals per time point). The animals were kept under normal laboratory conditions at a temperature of 22±2° C. and a dark/light rhythm of 12 hours. Food and water were provided ad libitium. During an acclimation period of at least 3 days before the beginning of the study animals were clinically examined to ascertain the absence of abnormal clinical signs. At 2, 5, 30, 60, 240 min post intravenous injection via the tail vein of ca. 150 kBq in 100 μl of the test compound, urine and feces were quantitatively collected. At the same time points, animals were sacrificed by decapitation and under isoflurane anaesthesia and the following organs and tissues were removed for the determination of radioactivity using a gamma-counter: spleen, liver, kidney, lung, femur, heart, brain, fat, thyroid, muscle, skin, blood, tail, stomach (without content), testicle, intestine (with content), pancreas, adrenals, and the remaining body. For analysis the decay corrected percentage of the injected dose per tissue weight (% ID/g±standard deviation) was calculated.

T1 sequence (P05067 672-713 limits assumed): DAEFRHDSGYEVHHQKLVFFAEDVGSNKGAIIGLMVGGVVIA

SMILES: O=C(NCC(=O)N1CCN(c2ccc(OCc3ccccc3)cc2)CC1)c1cccc(OCC[18F])c1 [Example 3g, N-{2-[4-(4-Benzyloxy-phenyl)-piperazin-1-yl]-2-oxo-ethyl}-3-(2-[F-18]fluoro-ethoxy)benzamide]
- autoradiographical analysis of binding to cryosections from cortex (Aβ plaques): Specific binding in plaque-rich regions of AD samples
- Organ distribution of F-18 signal, adrenals ([1]; 2 min post i.v. injection): 7.57 % ID/g
- Organ distribution of F-18 signal, adrenals ([1]; 5 min post i.v. injection): 10.67 % ID/g
- Organ distribution of F-18 signal, adrenals ([1]; 30 min post i.v. injection): 4.49 % ID/g
- Organ distribution of F-18 signal, adrenals ([1]; 60 min post i.v. injection): 1.77 % ID/g
- Organ distribution of F-18 signal, adrenals ([1]; 240 min post i.v. injection): 1.03 % ID/g
- Organ distribution of F-18 signal, blood ([1]; 2 min post i.v. injection): 1.72 % ID/g
- Organ distribution of F-18 signal, blood ([1]; 5 min post i.v. injection): 2.12 % ID/g
- Organ distribution of F-18 signal, blood ([1]; 30 min post i.v. injection): 1.85 % ID/g
- Organ distribution of F-18 signal, blood ([1]; 60 min post i.v. injection): 1.32 % ID/g
- Organ distribution of F-18 signal, blood ([1]; 240 min post i.v. injection): 0.57 % ID/g
- Organ distribution of F-18 signal, brain ([1]; 2 min post i.v. injection): 5.15 % ID/g
- Organ distribution of F-18 signal, brain ([1]; 5 min post i.v. injection): 4.14 % ID/g
- Organ distribution of F-18 signal, brain ([1]; 30 min post i.v. injection): 1.66 % ID/g
- Organ distribution of F-18 signal, brain ([1]; 60 min post i.v. injection): 0.93 % ID/g
- Organ distribution of F-18 signal, brain ([1]; 240 min post i.v. injection): 0.42 % ID/g
- Organ distribution of F-18 signal, fat ([1]; 2 min post i.v. injection): 1.97 % ID/g
- Organ distribution of F-18 signal, fat ([1]; 5 min post i.v. injection): 2.44 % ID/g
- Organ distribution of F-18 signal, fat ([1]; 30 min post i.v. injection): 4.26 % ID/g
- Organ distribution of F-18 signal, fat ([1]; 60 min post i.v. injection): 2.38 % ID/g
- Organ distribution of F-18 signal, fat ([1]; 240 min post i.v. injection): 0.34 % ID/g
- Organ distribution of F-18 signal, femur ([1]; 2 min post i.v. injection): 1.95 % ID/g
- Organ distribution of F-18 signal, femur ([1]; 5 min post i.v. injection): 1.79 % ID/g
- Organ distribution of F-18 signal, femur ([1]; 30 min post i.v. injection): 1.05 % ID/g
- Organ distribution of F-18 signal, femur ([1]; 60 min post i.v. injection): 1.11 % ID/g
- Organ distribution of F-18 signal, femur ([1]; 240 min post i.v. injection): 3.06 % ID/g
- Organ distribution of F-18 signal, heart ([1]; 2 min post i.v. injection): 15.57 % ID/g
- Organ distribution of F-18 signal, heart ([1]; 5 min post i.v. injection): 8.25 % ID/g
- Organ distribution of F-18 signal, heart ([1]; 30 min post i.v. injection): 3.47 % ID/g
- Organ distribution of F-18 signal, heart ([1]; 60 min post i.v. injection): 2.07 % ID/g
- Organ distribution of F-18 signal, heart ([1]; 240 min post i.v. injection): 0.61 % ID/g
- Organ distribution of F-18 signal, intestine ([1]; 2 min post i.v. injection): 1.93 % ID/g
- Organ distribution of F-18 signal, intestine ([1]; 5 min post i.v. injection): 1.87 % ID/g
- Organ distribution of F-18 signal, intestine ([1]; 30 min post i.v. injection): 4.58 % ID/g
- Organ distribution of F-18 signal, intestine ([1]; 60 min post i.v. injection): 6.47 % ID/g
- Organ distribution of F-18 signal, intestine ([1]; 240 min post i.v. injection): 8.50 % ID/g
- Organ distribution of F-18 signal, kidney ([1]; 2 min post i.v. injection): 15.52 % ID/g
- Organ distribution of F-18 signal, kidney ([1]; 5 min post i.v. injection): 14.38 % ID/g
- Organ distribution of F-18 signal, kidney ([1]; 30 min post i.v. injection): 11.43 % ID/g
- Organ distribution of F-18 signal, kidney ([1]; 60 min post i.v. injection): 7.70 % ID/g
- Organ distribution of F-18 signal, kidney ([1]; 240 min post i.v. injection): 1.05 % ID/g
- Organ distribution of F-18 signal, liver ([1]; 2 min post i.v. injection): 6.35 % ID/g
- Organ distribution of F-18 signal, liver ([1]; 5 min post i.v. injection): 13.36 % ID/g
- Organ distribution of F-18 signal, liver ([1]; 30 min post i.v. injection): 8.75 % ID/g
- Organ distribution of F-18 signal, liver ([1]; 60 min post i.v. injection): 5.04 % ID/g
- Organ distribution of F-18 signal, liver ([1]; 240 min post i.v. injection): 1.44 % ID/g
- Organ distribution of F-18 signal, lung ([1]; 2 min post i.v. injection): 5.58 % ID/g
- Organ distribution of F-18 signal, lung ([1]; 5 min post i.v. injection): 4.05 % ID/g
- Organ distribution of F-18 signal, lung ([1]; 30 min post i.v. injection): 2.55 % ID/g
- Organ distribution of F-18 signal, lung ([1]; 60 min post i.v. injection): 1.66 % ID/g
- Organ distribution of F-18 signal, lung ([1]; 240 min post i.v. injection): 0.59 % ID/g
- Organ distribution of F-18 signal, muscle ([1]; 2 min post i.v. injection): 3.95 % ID/g
- Organ distribution of F-18 signal, muscle ([1]; 5 min post i.v. injection): 3.17 % ID/g
- Organ distribution of F-18 signal, muscle ([1]; 30 min post i.v. injection): 1.95 % ID/g
- Organ distribution of F-18 signal, muscle ([1]; 60 min post i.v. injection): 1.31 % ID/g
- Organ distribution of F-18 signal, muscle ([1]; 240 min post i.v. injection): 0.30 % ID/g
- Organ distribution of F-18 signal, pancreas ([1]; 2 min post i.v. injection): 4.96 % ID/g
- Organ distribution of F-18 signal, pancreas ([1]; 5 min post i.v. injection): 4.26 % ID/g
- Organ distribution of F-18 signal, pancreas ([1]; 30 min post i.v. injection): 2.21 % ID/g
- Organ distribution of F-18 signal, pancreas ([1]; 60 min post i.v. injection): 1.22 % ID/g
- Organ distribution of F-18 signal, pancreas ([1]; 240 min post i.v. injection): 0.32 % ID/g
- Organ distribution of F-18 signal, skin ([1]; 2 min post i.v. injection): 1.72 % ID/g
- Organ distribution of F-18 signal, skin ([1]; 5 min post i.v. injection): 2.15 % ID/g
- Organ distribution of F-18 signal, skin ([1]; 30 min post i.v. injection): 1.93 % ID/g
- Organ distribution of F-18 signal, skin ([1]; 60 min post i.v. injection): 1.29 % ID/g
- Organ distribution of F-18 signal, skin ([1]; 240 min post i.v. injection): 0.42 % ID/g
- Organ distribution of F-18 signal, spleen ([1]; 2 min post i.v. injection): 1.73 % ID/g
- Organ distribution of F-18 signal, spleen ([1]; 5 min post i.v. injection): 2.22 % ID/g
- Organ distribution of F-18 signal, spleen ([1]; 30 min post i.v. injection): 1.28 % ID/g
- Organ distribution of F-18 signal, spleen ([1]; 60 min post i.v. injection): 0.86 % ID/g
- Organ distribution of F-18 signal, spleen ([1]; 240 min post i.v. injection): 0.36 % ID/g
- Organ distribution of F-18 signal, stomach ([1]; 2 min post i.v. injection): 4.78 % ID/g
- Organ distribution of F-18 signal, stomach ([1]; 5 min post i.v. injection): 4.49 % ID/g
- Organ distribution of F-18 signal, stomach ([1]; 30 min post i.v. injection): 2.20 % ID/g
- Organ distribution of F-18 signal, stomach ([1]; 60 min post i.v. injection): 1.53 % ID/g
- Organ distribution of F-18 signal, stomach ([1]; 240 min post i.v. injection): 0.82 % ID/g
- Organ distribution of F-18 signal, tail ([1]; 2 min post i.v. injection): 8.94 % ID/g
- Organ distribution of F-18 signal, tail ([1]; 5 min post i.v. injection): 9.06 % ID/g
- Organ distribution of F-18 signal, tail ([1]; 30 min post i.v. injection): 4.73 % ID/g
- Organ distribution of F-18 signal, tail ([1]; 60 min post i.v. injection): 2.57 % ID/g
- Organ distribution of F-18 signal, tail ([1]; 240 min post i.v. injection): 1.98 % ID/g
- Organ distribution of F-18 signal, testicle ([1]; 2 min post i.v. injection): 1.19 % ID/g
- Organ distribution of F-18 signal, testicle ([1]; 5 min post i.v. injection): 1.58 % ID/g
- Organ distribution of F-18 signal, testicle ([1]; 30 min post i.v. injection): 1.44 % ID/g
- Organ distribution of F-18 signal, testicle ([1]; 60 min post i.v. injection): 1.84 % ID/g
- Organ distribution of F-18 signal, testicle ([1]; 240 min post i.v. injection): 0.38 % ID/g
- Organ distribution of F-18 signal, thyroid ([1]; 2 min post i.v. injection): 3.87 % ID/g
- Organ distribution of F-18 signal, thyroid ([1]; 5 min post i.v. injection): 3.67 % ID/g
- Organ distribution of F-18 signal, thyroid ([1]; 30 min post i.v. injection): 1.78 % ID/g
- Organ distribution of F-18 signal, thyroid ([1]; 60 min post i.v. injection): 1.04 % ID/g
- Organ distribution of F-18 signal, thyroid ([1]; 240 min post i.v. injection): 0.56 % ID/g
